Data as given in US11365196B2, “FGFR inhibitor and application thereof” (Betta Pharmaceuticals Co., Ltd., priority 2017, dated 2022).
Where two headings read alike, the source gives them in different places.

Tests used:
NCI-H1581 cells = experiment: Cell proliferation assay on NCI-H1581 (Table 7); format: cell-based, human
Description: Test method: adding the appropriate volume of whole medium and the cells was suspended.

FGFR1 = FGFR1 (Homo sapiens (Human), UniProt P11362); experiment: Kinase assay Method 1, mobility shift assay
[1] = Homo sapiens, NCI-H1581, CellTiter 96 AQueous (144 hrs) or CellTiter Glo (96 hrs), class symbols, read-out: IC50(nM) value of compounds on NCI-H1581 cells
[2] = read-out: IC50(nM) value of compounds FGFR1, mobility shift assay, ATP at Km, class symbols

Chain of FGFR1 (P11362 22-822): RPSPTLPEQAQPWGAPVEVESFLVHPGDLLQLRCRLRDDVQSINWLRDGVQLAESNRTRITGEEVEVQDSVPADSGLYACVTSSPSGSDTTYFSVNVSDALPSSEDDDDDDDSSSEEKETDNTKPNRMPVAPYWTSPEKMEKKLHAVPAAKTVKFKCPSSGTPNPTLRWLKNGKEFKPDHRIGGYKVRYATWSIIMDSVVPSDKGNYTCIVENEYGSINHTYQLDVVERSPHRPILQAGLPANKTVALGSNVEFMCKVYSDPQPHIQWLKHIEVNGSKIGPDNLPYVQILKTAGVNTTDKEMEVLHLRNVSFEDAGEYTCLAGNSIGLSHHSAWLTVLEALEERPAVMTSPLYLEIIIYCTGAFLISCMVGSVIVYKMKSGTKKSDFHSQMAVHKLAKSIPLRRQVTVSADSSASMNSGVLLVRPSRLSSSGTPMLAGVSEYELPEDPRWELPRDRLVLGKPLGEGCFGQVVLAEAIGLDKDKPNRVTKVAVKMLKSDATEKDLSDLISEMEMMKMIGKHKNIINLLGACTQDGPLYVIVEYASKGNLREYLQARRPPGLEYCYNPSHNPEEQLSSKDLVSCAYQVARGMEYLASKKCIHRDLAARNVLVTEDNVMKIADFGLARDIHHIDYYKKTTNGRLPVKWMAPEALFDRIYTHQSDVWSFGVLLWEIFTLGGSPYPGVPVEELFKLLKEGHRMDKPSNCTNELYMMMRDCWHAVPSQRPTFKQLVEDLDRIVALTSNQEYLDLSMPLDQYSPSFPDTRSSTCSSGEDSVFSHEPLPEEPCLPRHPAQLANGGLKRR

| SMILES | IC50 (NCI-H1581 cells; [1]) | IC50 (FGFR1; [2]) | other results |
| --- | --- | --- | --- |
| COc1cc(OC)c(Cl)c(-c2cc3cnc(Nc4ccc(N5CCN(C(C)C)CC5)cc4)nc3n3cnnc23)c1 [Compound 11, 6-(2-chloro-3,5-dimethoxyphenyl)-N-(4-(4-isopropylpiperazin-1-yl)phenyl)-[1,2,4]triazolo[4′,3′:1,6]pyrido[2,3-d]pyrimidin-2-amine] | < 1 nM | < 1 nM | – |
| COc1cc(OC)c(Cl)c(-c2cc3cnc(Nc4ccc(N5CCN(C6COC6)CC5)cc4)nc3n3cnnc23)c1 [Compound 13, 6-(2-chloro-3,5-dimethoxyphenyl)-N-(4-(4-(oxetan-3-yl)piperazin-1-yl)phenyl)-[1,2,4]triazolo[4′,3′:1,6]pyrido[2,3-d]pyrimidin-2-amine] | 1 to 10 nM | < 1 nM | – |
| COc1cc(OC)c(Cl)c(-c2cc3cnc(Nc4ccc(N5CCC(N(C)C)CC5)cc4)nc3n3cnnc23)c1 [Compound 14, 6-(2-chloro-3,5-dimethoxyphenyl)-N-(4-(4-(dimethylamino)piperidin-1-yl)phenyl)[1,2,4]triazolo[4′,3′:1,6]pyrido[2,3-d]pyrimidin-2-amine] | < 1 nM | < 1 nM | – |
| COc1cc(OC)c(Cl)c(-c2cc3cnc(Nc4ccc(N5CCN(C)CC5)cc4)nc3n3cnnc23)c1 [Compound 15, 6-(2-chloro-3,5-dimethoxyphenyl)-N-(4-(4-methylpiperazin-1-yl)phenyl)-[1,2,4]triazolo[4′,3′:1,6]pyrido[2,3-d]pyrimidin-2-amine] | < 1 nM | < 1 nM | – |
| COc1cc(OC)c(Cl)c(-c2cc3cnc(Nc4ccc(N5CCN(C)CC5)cn4)nc3n3cnnc23)c1 [Compound 16, 6-(2-chloro-3,5-dimethoxyphenyl)-N-(5-(4-methylpiperazin-1-yl)pyridin-2-yl)-[1,2,4]triazolo[4′,3′:1,6]pyrido[2,3-d]pyrimidin-2-amine] | 10 to 100 nM | > 10 nM | – |
| CCN1CCN(Cc2ccc(Nc3ncc4cc(-c5cc(OC)cc(OC)c5Cl)c5nncn5c4n3)nc2)CC1 [Compound 17, 6-(2-chloro-3,5-dimethoxyphenyl)-N-(5-((4-ethylpiperazin-1-yl)methyl)pyridin-2-yl)-[1,2,4]triazolo[4′,3′:1,6]pyrido[2,3-d]pyrimidin-2-amine] | 10 to 100 nM | > 10 nM | – |
| COc1cc(OC)c(Cl)c(-c2cc3cnc(Nc4ccc(N(C)CCN(C)C)cc4)nc3n3cnnc23)c1 [Compound 21] | – | < 1 nM | IC50 (NCI-H1581 cells; CellTiter 96 AQueous (144 hrs) or CellTiter Glo (96 hrs), class symbols, read-out: IC50(nM) value of compounds on NCI-H1581 cells): 1 to 10 nM |
| COc1cc(OC)c(Cl)c(-c2cc3cnc(Nc4ccc(N5CC6CCC(C5)N6C)cc4)nc3n3cnnc23)c1 [Compound 23, 6-(2-chloro-3,5-dimethoxyphenyl)-N-(4-(8-methyl-3,8-diazabicyclo[3.2.1]octan-3-yl)phenyl)-[1,2,4]triazolo[4′,3′:1,6]pyrido[2,3-d]pyrimidin-2-amine] | < 1 nM | – | IC50 (FGFR1): < 1 nM |
| COc1cc(OC)c(Cl)c(-c2cc3cnc(Nc4ccc(N5CCN(C)C(C)(C)C5)cc4)nc3n3cnnc23)c1 [Compound 26, 6-(2-chloro-3,5-dimethoxyphenyl)-N-(4-(3,3,4-trimethylpiperazin-1-yl)phenyl)-[1,2,4]triazolo[4′,3′:1,6]pyrido[2,3-d]pyrimidin-2-amine] | < 1 nM | < 1 nM | – |
| COc1cc(OC)c(Cl)c(-c2cc3cnc(Nc4ccc(N5CCN(CCO)CC5)cc4)nc3n3cnnc23)c1 [Compound 32, 2-(4-(4-((6-(2-chloro-3,5-dimethoxyphenyl)-[1,2,4]triazolo[4′,3′:1,6]pyrido[2,3-d]pyrimidin-2-yl)amino)phenyl)piperazin-1-yl)ethan-1-ol] | 1 to 10 nM | < 1 nM | – |
| COc1cc(OC)c(Cl)c(-c2cc3cnc(Nc4ccc(C5CCNCC5)c(C)c4)nc3n3cnnc23)c1 [Compound 52, 6-(2-chloro-3,5-dimethoxyphenyl)-N-(3-methyl-4-(piperidin-4-yl)phenyl)-[1,2,4]triazolo[4′,3′:1,6]pyrido[2,3-d]pyrimidin-2-amine] | < 1 nM | < 1 nM | – |
| COc1cc(OC)c(Cl)c(-c2cc3cnc(Nc4ccc(C(=O)N5C[C@@H](C)N[C@@H](C)C5)cc4)nc3n3cnnc23)c1Cl [Compound 60, (4-((6-(2,6-dichloro-3,5-dimethoxyphenyl)-[1,2,4]triazolo[4′,3′:1,6]pyrido[2,3-d]pyrimidin-2-yl)amino)phenyl)((3S,5R)-3,5-dimethylpiperazin-1-yl)methanone] | < 1 nM | – | – |
| CCN1CCN(c2ccc(Nc3ncc4cc(-c5c(Cl)c(OC)cc(OC)c5Cl)c5nncn5c4n3)cc2)CC1 [Compound 61, 6-(2,6-dichloro-3,5-dimethoxyphenyl)-N-(4-(4-ethylpiperazin-1-yl)phenyl)-[1,2,4]triazolo[4′,3′:1,6]pyrido[2,3-d]pyrimidin-2-amine] | < 1 nM | < 1 nM | – |
| CCN1CCC(c2ccc(Nc3ncc4cc(-c5cc6[nH]c(C)nc6cc5Cl)c5nncn5c4n3)cc2)CC1 [Compound 79, 6-(5-chloro-2-methyl-1H-benzo[d]imidazol-6-yl)-N-(4-(1-ethylpiperidin-4-yl)phenyl)-[1,2,4]triazolo[4′,3′:1,6]pyrido[2,3-d]pyrimidin-2-amine] | – | – | IC50 (NCI-H1581 cells; Homo sapiens, NCI-H1581, read-out: IC50(nM) value of compounds on NCI-H1581 cells): 11.5 nM |
| Cc1nc2ccc(-c3cc4cnc(Nc5ccc(N6CCOCC6)cc5)nc4n4cnnc34)c(Cl)c2[nH]1 [Compound 83, 6-(7-chloro-2-methyl-1H-benzo[d]imidazol-6-yl)-N-(4-morpholinophenyl)-[1,2,4]triazolo[4′,3′:1,6]pyrido[2,3-d]pyrimidin-2-amine] | > 100 nM | – | – |
| C=CC(=O)Nc1ccc(Cc2nnc3c(-c4cc(OC)cc(OC)c4Cl)cc4cnc(NCCN5CCOCC5)nc4n23)cc1 [Compound 86, N-(4-((6-(2-chloro-3,5-dimethoxyphenyl)-2-((2-morpholinoethyl)amino)-[1,2,4]triazolo[4′,3′:1,6]pyrido[2,3-d]pyrimidin-9-yl)methyl)phenyl)acrylamide] | 1 to 10 nM | > 10 nM | – |
| CCC(=O)Nc1ccc(Cc2nnc3c(-c4cc(OC)cc(OC)c4Cl)cc4cnc(NCCN5CCOCC5)nc4n23)cc1 [Compound 96, N-(4-((6-(2-chloro-3,5-dimethoxyphenyl)-2-((2-morpholinoethyl)amino)-[1,2,4]triazolo[4′,3′:1,6]pyrido[2,3-d]pyrimidin-9-yl)methyl)phenyl)propionamide] | > 100 nM | > 100 nM | – |
| CC[N+]1([O-])CCN(c2ccc(Nc3ncc4cc(-c5cc(OC)cc(OC)c5Cl)c5nncn5c4n3)cc2)CC1 [Compound 99, 4-(4-((6-(2-chloro-3,5-dimethoxyphenyl)-[1,2,4]triazolo[4′,3′:1,6]pyrido[2,3-d]pyrimidin-2-yl)amino)phenyl)-1-ethylpiperazine 1-oxide] | 1 to 10 nM | > 10 nM | – |
| COc1cc(OC)c(Cl)c(-c2cc3cnc(Nc4ccc(N5CC[N+]6(O)CCC[C@@H]6C5)cc4)nc3n3cnnc23)c1 (stereo partly drawn) [Compound 100, (8aR)-2-(4-((6-(2-chloro-3,5-dimethoxyphenyl)-[1,2,4]triazolo[4′,3′:1,6]pyrido[2,3-d]pyrimidin-2-yl)amino)phenyl)octahydro-5H-pyrrolo[1,2-a]pyrazine 5-oxide] | 10 to 100 nM | < 1 nM | – |
| COc1cc(OC)c(Cl)c(-c2cc3cnc(Nc4ccc(N5CCN(C6CCCC6)CC5)cc4)nc3n3cnnc23)c1 [Compound 104, 6-(2-chloro-3,5-dimethoxyphenyl)-N-(4-(4-cyclopentylpiperazin-1-yl)phenyl)-[1,2,4]triazolo[4′,3′:1,6]pyrido[2,3-d]pyrimidin-2-amine] | 1 to 10 nM | < 1 nM | – |
| C=CC(=O)N1CCN(CCc2nc3c(-c4cc(OC)cc(OC)c4Cl)cc4cnc(NC)nc4n3n2)CC1 [Compound 116, 1-(4-(2-(4-(2-chloro-3,5-dimethoxyphenyl)-8-(methylamino)-[1,2,4]triazolo[1′,5′:1,6]pyrido[2,3-d]pyrimidin-2-yl)ethyl)piperazin-1-yl)prop-2-en-1-one] | 10 to 100 nM | – | – |
| C=CC(=O)N1CCN(Cc2nc3c(-c4cc(OC)cc(OC)c4Cl)cc4cnc(NC)nc4n3n2)CC1 [Compound 117, 1-(4-((4-(2-chloro-3,5-dimethoxyphenyl)-8-(methylamino)-[1,2,4]triazolo[1′,5′:1,6]pyrido[2,3-d]pyrimidin-2-yl)methyl)piperazin-1-yl)prop-2-en-1-one] | 10 to 100 nM | – | – |
| C=CC(=O)N1CCN(CCc2nc3c(-c4c(Cl)c(OC)cc(OC)c4Cl)cc4cnc(NC)nc4n3n2)CC1 [Compound 124, 1-(4-(2-(4-(2,6-dichloro-3,5-dimethoxyphenyl)-8-(methylamino)-[1,2,4]triazolo[1′,5′:1,6]pyrido[2,3-d]pyrimidin-2-yl)ethyl)piperazin-1-yl)prop-2-en-1-one] | 1 to 10 nM | – | – |
| C=CC(=O)N1C[C@@H](C)N(CCCc2nc3c(-c4c(Cl)c(OC)cc(OC)c4Cl)cc4cnc(NC)nc4n3n2)[C@@H](C)C1 [Compound 131, 1-((3S,5R)-4-(3-(4-(2,6-dichloro-3,5-dimethoxyphenyl)-8-(methylamino)-[1,2,4]triazolo[1′,5′:1,6]pyrido[2,3-d]pyrimidin-2-yl)propyl)-3,5-dimethylpiperazin-1-yl)prop-2-en-1-one] | 10 to 100 nM | – | – |
| C=CC(=O)N1CCN(CCCc2nc3c(-c4c(Cl)c(OC)cc(OC)c4Cl)cc4cnc(NCC(F)(F)F)nc4n3n2)CC1 [Compound 137, 1-(4-(3-(4-(2,6-dichloro-3,5-dimethoxyphenyl)-8-((2,2,2-trifluoroethyl)amino)-[1,2,4]triazolo[1′,5′:1,6]pyrido[2,3-d]pyrimidin-2-yl)propyl)piperazin-1-yl)prop-2-en-1-one] | 1 to 10 nM | – | – |
| CNc1ncc2cc(-c3c(Cl)c(OC)cc(OC)c3Cl)c3nc(CCCN4CCN(C(=O)C(C#N)=CC(C)(C)C)CC4)nn3c2n1 [Compound 148, 2-(4-(3-(4-(2,6-dichloro-3,5-dimethoxyphenyl)-8-(methylamino)-[1,2,4]triazolo[1′,5′:1,6]pyrido[2,3-d]pyrimidin-2-yl)propyl)piperazine-1-carbonyl)-4,4-dimethylpent-2-enenitrile] | > 100 nM | – | – |
